Values quoted from earlier work in US11918653B2, “Triglyceride otic formulations and uses thereof” (DOMPÉ FARMACEUTICI S.P.A., priority 2017, dated 2024).

Assays:
[1] = system: Meniere's disease symptoms; conditions: infusion into the scala tympani
[2] = molecular target: constitutively activated D136A mutant VP2 receptor (Homo sapiens, UniProt P30518, D136A)
[3] = after topical application
[4] = system: mouse collagen-induced arthritis model; conditions: 30 mg/kg dose
[5] = system: TNF-α production in the LPS-induced human PBMC cells; conditions: read-out: IC50 for inhibiting TNF-α production
tinnitus = conditions: administered by IV
[6] = system: TNF-α production in the LPS-induced MonoMac-6 cells; conditions: read-out: IC50 for inhibiting TNF-α production
[7] = in vivo
TNF-α = conditions: LPS-challenged mice
rat arthritis model = conditions: 30 mg/kg
lymphotoxin (TNF-β) = molecular target: T1, lymphotoxin (TNF-β) (Homo sapiens, UniProt P01374)
T1 sequence (P01374 35-205): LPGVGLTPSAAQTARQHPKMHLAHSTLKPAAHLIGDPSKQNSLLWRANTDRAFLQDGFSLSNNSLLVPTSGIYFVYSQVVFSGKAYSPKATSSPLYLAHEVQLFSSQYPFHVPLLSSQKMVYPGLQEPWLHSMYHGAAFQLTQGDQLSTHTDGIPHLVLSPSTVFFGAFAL

For `Cc1ccccc1C(=O)Nc1ccc(C(=O)N2CCCC(N(C)C)c3ccccc32)cc1.Cl` (racemic) [OPC-31260, (±)-5-dimethylamino-1-(4-[2-methylbenzoylamino]benzoyl)-2,3,4,5-tetrahydro-1H-benzazepin hydrochloride], the “Meniere's disease symptoms” value [1] is listed as “marked reduction of Meniere's disease symptoms” and the “behaviour at D136A mutant VP2 receptor” value [2] is listed as “inverse agonist”.
In the case of `C=CC[C@@H]1/C=C(\C)C[C@H](C)C[C@H](OC)[C@H]2O[C@@](O)(C(=O)C(=O)N3CCCC[C@H]3C(=O)O[C@H](/C(C)=C/[C@@H]3CC[C@@H](O)[C@H](OC)C3)[C@H](C)[C@@H](O)CC1=O)[C@H](C)C[C@@H]2OC` (relative stereo) [tacrolimus, [3S-[3R*[E(1S*,3S*,4S*)], 4S*,5R*,8S*,9E,12R*,14R*,15S*,16R*,18S*,19S*,26aR*]]-5,6,8,11,12,13,14,15,16,17,18,19,24,25,26,26a-hexadecahydro-5,19-dihydroxy-3-[2-(4-hydroxy-3-methoxycyclohexyl)-1-methylethenyl]-14,16-dimethoxy-4,10,12,18-tetramethyl-8-(2-propenyl)-15,19-epoxy-3H-pyrido[2,1-39c][1,4]oxaazacyclotricosine-1,7,20,21(4H,23H)-tetrone monohydrate], the bioavailability [3] is given as “less than 0.5%”.
For `Cc1ccc2nc(NCCN)c3ncc(C)n3c2c1` [BMS-345541], the severity of disease [4] is listed as “significantly reduced the severity of disease”.
For `CC[C@H](C)[C@H](NC(=O)[C@H](CC(C)C)[C@H](C(C)C)N(O)C=O)C(=O)Nc1ccccn1` [GW3333], the IC50 [5] is given as 970 nM.
For `CCN(CC)CC(=O)Nc1c(C)cccc1C` [Lidocaine], the “sufferers in whom noise associated with tinnitus is reduced or eliminated” value (tinnitus) is listed as 60-80%.
In the case of `CC(C)C[C@@H](C(=O)N[C@@H](CCCN/C(N)=N/[N+](=O)[O-])C(=O)Nc1nccs1)[C@H](C(C)C)N(O)C=O` [Nitroarginine analog A], the IC50 [6] is given as 34 nM and the oral activity [7] is given as “lacks oral activity”.
For `O=C(Nc1cc(Cl)cc2c1[nH]c1cnccc12)c1cccnc1` [PS-1145], the “production of TNF-α” value (TNF-α) is given as “reduces the production of TNF-α”.
For `COc1cccc2nc(-c3cccs3)nc(NN3C(=O)C=C(C)C3=O)c12` [SPC-839], the paw edema (rat arthritis model) is given as “reduces paw edema”.
In the case of `CCOc1ccc2c(c1)C1(CCC(OCCN3CCOCC3)CC1)C(=O)N2S(=O)(=O)c1ccc(C(=O)NC(C)(C)C)cc1OC.O=C(O)/C=C/C(=O)O` (centres unmarked) [SR-1211463, 1-(4-(N-tert-butylcarbamoyl)-2-methoxybenzenesulfonyl)-5-ethoxy-3-spiro-(4-(2-morpholinoethoxy)cyclohexane)indol-2-one fumarate], the “behaviour at D136A mutant VP2 receptor” value [2] is listed as “inverse agonist”.
For Adalimumab, the “patients developing injection site reactions (erythema and/or itching, hemorrhage, pain and/or swelling)” value (systemic administration) is listed as 20% and the “binding or inactivation of lymphotoxin (TNF-β)” value (lymphotoxin (TNF-β)) is listed as “does not bind or inactivate”.
For etanercept, the “patients experiencing injection site reactions” value (systemically treated) is listed as “over one-third of patients”.
